Legend:
[1] = biological target: Carbonic anhydrase 1 (Homo sapiens) (UniProt P00915); assay: Maximal activatory effect against human carbonic anhydrase I (hCA I) at a concentration of 1 uM
[2] = biological target: Carbonic anhydrase 1 (Homo sapiens) (UniProt P00915); assay: Maximal activatory effect against human carbonic anhydrase I (hCA I)
[3] = biological target: Carbonic anhydrase 1 (Homo sapiens) (UniProt P00915); assay: Maximal activatory effect against human carbonic anhydrase I (hCA I) at a concentration of 1 mM
[4] = biological target: Carbonic anhydrase 2 (Homo sapiens) (UniProt P00918); assay: Maximal activatory effect against human carbonic anhydrase II (hCA II)

Sequence of Carbonic anhydrase 1 (Homo sapiens) (P00915 2-261 limits assumed): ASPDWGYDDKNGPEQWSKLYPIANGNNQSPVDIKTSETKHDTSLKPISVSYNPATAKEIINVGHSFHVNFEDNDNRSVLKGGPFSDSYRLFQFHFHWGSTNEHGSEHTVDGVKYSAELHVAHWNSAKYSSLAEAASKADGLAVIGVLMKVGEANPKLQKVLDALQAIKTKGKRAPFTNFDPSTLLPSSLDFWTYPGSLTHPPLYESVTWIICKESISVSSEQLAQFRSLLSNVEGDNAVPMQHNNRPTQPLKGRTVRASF

SMILES | Activity [1] | Activity [2] | Activity [3] | Activity [4]
CN[C@H]1CC[C@@H](c2ccc(Cl)c(Cl)c2)c2ccccc21 | 145% | 165% | – | –
CNCCC(Oc1ccc(C(F)(F)F)cc1)c1ccccc1 (stereo not given) | 175% | – | 210% | –
NCCc1c[nH]cn1 | 165% | – | 185% | –
N[C@@H](Cc1ccccc1)C(=O)O | – | 160% | – | 210%
CN(C)CCCC1(c2ccc(F)cc2)OCc2cc(C#N)ccc21 (stereo not given) | 134% | 148% | – | –

From ChEMBL document CHEMBL1136165, “Carbonic anhydrase activators. The selective serotonin reuptake inhibitors fluoxetine, sertraline and citalopram are strong activators of isozymes I and II” (Bioorg Med Chem Lett, 2003)
